Data taken from ChEMBL document CHEMBL1136129, “Design and synthesis of poly(ADP-ribose)polymerase-1 (PARP-1) inhibitors. Part 3: In vitro evaluation of 1,3,4,5-tetrahydro-benzo[c][1,6]- and [c][1,7]-naphthyridin-6-ones” (Bioorg Med Chem Lett, 2003).

Experiments:
[1] = Effective concentration was determined from in vitro cellular peroxide toxicity assay; assay type: functional
[2] = biological target: Poly [ADP-ribose] polymerase 1 (Homo sapiens, UniProt P09874); assay: Inhibition of human recombinant Poly (ADP-ribose) polymerase 1
Sequence of Poly [ADP-ribose] polymerase 1 (P09874 whole entry): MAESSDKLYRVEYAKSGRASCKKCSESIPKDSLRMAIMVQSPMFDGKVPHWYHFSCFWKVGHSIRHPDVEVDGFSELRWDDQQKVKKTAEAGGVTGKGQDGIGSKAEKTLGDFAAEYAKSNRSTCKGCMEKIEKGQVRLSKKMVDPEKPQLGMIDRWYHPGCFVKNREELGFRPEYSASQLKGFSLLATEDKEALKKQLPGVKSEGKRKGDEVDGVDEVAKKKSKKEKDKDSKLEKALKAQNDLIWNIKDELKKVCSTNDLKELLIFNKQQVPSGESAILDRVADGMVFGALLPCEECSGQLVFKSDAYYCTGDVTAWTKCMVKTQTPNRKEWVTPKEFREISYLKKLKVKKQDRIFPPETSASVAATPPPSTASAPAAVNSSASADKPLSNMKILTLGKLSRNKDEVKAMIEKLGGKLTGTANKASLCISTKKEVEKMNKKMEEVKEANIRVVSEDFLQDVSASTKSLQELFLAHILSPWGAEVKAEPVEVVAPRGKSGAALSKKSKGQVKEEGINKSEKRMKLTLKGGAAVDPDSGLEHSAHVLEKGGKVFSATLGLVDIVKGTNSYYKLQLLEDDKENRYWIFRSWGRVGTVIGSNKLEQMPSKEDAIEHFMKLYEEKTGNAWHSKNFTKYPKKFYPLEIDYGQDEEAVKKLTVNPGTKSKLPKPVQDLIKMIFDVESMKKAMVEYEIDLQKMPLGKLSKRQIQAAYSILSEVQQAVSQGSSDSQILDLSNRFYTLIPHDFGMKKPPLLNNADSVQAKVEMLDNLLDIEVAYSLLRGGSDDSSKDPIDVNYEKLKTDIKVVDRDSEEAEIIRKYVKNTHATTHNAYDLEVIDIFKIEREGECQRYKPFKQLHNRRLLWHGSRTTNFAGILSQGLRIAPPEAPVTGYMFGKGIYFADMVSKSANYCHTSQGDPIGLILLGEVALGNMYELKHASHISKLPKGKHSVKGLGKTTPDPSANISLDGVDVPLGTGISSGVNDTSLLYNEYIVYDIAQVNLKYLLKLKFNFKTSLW

Row | Compound | EC50 [1] [nM] | IC50 [2] [nM]
1 | N[C@@H](CCC(=O)N1CCc2nc(O)c3ccccc3c2C1)C(=O)O | 30000 | 89
2 | O=S(=O)(CCN1CCC(N2CCCC2)CC1)N1CCc2c(nc(O)c3ccccc23)C1 | 1780 | 349
3 | O=C(CCN1CCCCC1)N1CCc2c(nc(O)c3ccccc23)C1 |  | 240
4 | O=c1[nH]c2c(c3ccccc13)CCN(S(=O)(=O)CCN1CCCCC1)C2 | 2790 | 376
5 | O=C(CCN1CCC(N2CCCC2)CC1)N1CCc2nc(O)c3cc(F)ccc3c2C1 | 610 | 32
6 | O=C(CCN1CCCCC1)N1CCc2[nH]c(=O)c3cc(F)ccc3c2C1 | 30 | 25
7 | Oc1nc2c(c3ccccc13)CCCC2 |  | 167
8 | O=C(CN1CCN(C2CCCC2)CC1)N1CCc2c(nc(O)c3ccccc23)C1 | 690 | 116
9 | Oc1nc2c(c3ccccc13)CNCC2 | 40 | 
10 | O=C(CN1CCCCC1)N1CCc2nc(O)c3ccccc3c2C1 | 60 | 
11 | O=C(CN1CCCCC1)N1CCc2c(nc(O)c3ccccc23)C1 | 260 | 
12 | O=c1[nH]c2c(c3ccccc13)CN(S(=O)(=O)CCN1CCC(N3CCCC3)CC1)CC2 |  | 357
13 | O=C(CN1CCC(N2CCCC2)CC1)N1CCc2nc(O)c3ccccc3c2C1 | 850 | 185
14 | O=C(CCN1CCC(N2CCCC2)CC1)N1CCc2c(nc(O)c3ccccc23)C1 |  | 243
15 | O=C([C@@H]1CCCN1)N1CCc2c(nc(O)c3ccccc23)C1 | 100 | 31
16 | Oc1nc2c(c3ccc(F)cc13)CNCC2 | 40 | 20
17 | Oc1nc2c(c3ccccc13)CCNC2 | 45 | 30
18 | O=C(CCN1CCCCC1)N1CCc2nc(O)c3ccccc3c2C1 | 58 | 
